We go through five molecules from patent publication US20190062749A1, “SIRNA, PHARMACEUTICAL COMPOSITION AND CONJUGATE WHICH CONTAIN SIRNA, AND USES THEREOF” (priority 2015, published 2019).

The subject of series [1] is HBsAg. As to conditions: 0.1 mg/kg gastric gavage daily for 7 days.
Protocol: The drug dosages for all animals were calculated based on the body weight and the administration volume was 10 ml/kg. The PBS group and each of the RBP131/X2M2 groups were administered with a single dose via tail vein, and the entecavir group was administered by gastric gavage daily for 7 consecutive days, i.e., once a day from day 0 to day 6. Half of the animals was sacrificed in batches at day 7 and day 28, respectively. The expression levels of HBsAg in liver tissue were detected by the detection method as described above.
In series [2] the test system is HBsAg. Conditions: 25 ng/g subcutaneously twice a week (day 0, 4, 7, 11, 14), day 7 to 28.
Protocol: The drug dosages for all animals were calculated based on the body weight and the administration volume was 10 ml/kg. […] The blood was taken from mouse orbital venous plexus before administration and at day 7, 14, 21, and 28 after administration, and serum HBsAg levels were measured for each time point.
The volume of the blood taken out from the orbit was about 0.5 ml each time, and the volume of the serum was no less than 200 μl after centrifugation. HBsAg CLIA kit (Autobio, CL0310) was used to detect the expression levels of HBsAg in serum. The remaining expression of HBsAg was calculated as follows:
The remaining expression of HBsAg=(the content of HBsAg in the test group/the content of HBsAg in the PBS control group)×100%, wherein the content of HBsAg was expressed in nanograms of HBsAg per gram of liver tissue proteins.
Series [3] has as its system HepG2.2.15 cells. Kind of series: MTT cytotoxicity assay in HepG2.2.15 cells. In kind it is cell-based. Conditions: 500 nM concentration.
Series [4] in a line: Stability of siRNAs in human plasma in vitro (gel, ratio of the longest fragments RL). In kind it is in vitro ADME. Conditions: 50% human plasma; for RL (ratio of the longest fragments) 48 h / RL (ratio of the longest fragments) 0 h / RL (ratio of the longest fragments) 2 h / RL (ratio of the longest fragments) 4 h / RL (ratio of the longest fragments) 6 h / RL (ratio of the longest fragments) 8 h / RL (ratio of the longest fragments) 24 h: 37° C.; for band position / full-length state on gel (FIG. 3) / plasma stability (in words): up to 48 h. Here is the method: The siRNAs (20 μM, 10 μl) obtained in Preparation Example 1 were incubated with 50% human plasma (HP) at 37° C. in vitro for a certain time and samples were taken therefrom. Specifically, 10 μl samples were taken at 0, 2, 4, 6, 8, 24 and 48 hours respectively and immediately snap frozen in liquid nitrogen, followed by cryopreservation at −80° C. for future use. 20 wt % non-denaturing polyacrylamide gel was formulated, and 10 μl 5-fold diluted above samples (dilution solution: 1×PBS buffer at pH 7.4) and 4 μl loading buffer (20 mM EDTA, 36 wt % glycerol, 0.06 wt % bromophenol blue) were mixed and then loaded into the gel to perform electrophoresis for about 60 minutes under 80 mA constant current. After electrophoresis finished, the gel was stained with 1× Sybr Gold dye (Invitrogen, Cat. 11494) for 15 minutes followed by imaging.
The ratio of the longest fragments remained after incubating the test siRNAs and control siRNAs with human plasma to the longest fragments of the siRNAs without the treatment of human plasma (i.e., the markers shown in FIG. 3) (also referred to as ratio of the longest fragments, RL) is calculated by reading the grayscale values quantitatively.

Series [5] concerns HBV mRNA. Kind of series: Inhibition of HBV mRNA expression in transfected HepG2.2.15 cells (fluorescent qPCR). Conditions: 50 nM, 10 nM and 1 nM siRNA, 48 hours after transfection. In kind it is cell-based. As for the experimental part:
HepG2.2.15 cells were purchased from ATCC, cultured with DMEM complete medium (Gibco) containing 10% fetal bovine serum (FBS, Gibco), 2 mM L-glutamine (Gibco) and 380 μg/ml G418 in an incubator containing 5% CO2/95% air at 37° C.
When using the siRNAs against the X gene region of HBV or the non-specific siRNAs as negative controls synthesized in Preparation Example 1 (all of which were synthesized by Suzhou Ribo Life Science Co., Ltd.) to transfect cells, Lipofectamine™ 2000 (Invitrogen) was used as a transfection reagent. The specific procedures thereof may refer to the instruction provided by the manufacturer. […]
The final concentrations of the siRNAs were 50 nM, 10 nM and 1 nM, respectively. The expression levels of HBV mRNA in the above harvested cells were measured by real-time fluorescent qPCR 48 hours after transfection. Specifically, RNeasy Mini Kit (QIAGEN Co., Cat. 74106) was used to extract total RNAs according to the instructions thereof, and the extracted total RNAs were reverse transcribed into cDNAs, and then the inhibitory efficiency of the siRNAs on the expression of HBV mRNA in HepG2.2.15 cells was detected by fluorescent qPCR method. […]
In this fluorescent qPCR method, the inhibitory activity of siRNA was expressed as the remaining expression of HBV gene, and was calculated as follows: […]
(Real-time PCR tracks product formation cycle by cycle.)

The test system of series [6] is rat primary hepatocytes. Kind of series: MTT cytotoxicity assay in rat primary hepatocytes. In kind it is cell-based. As to conditions: 500 nM concentration. (Formazan colour is commonly taken as a measure of viable cells.)
Series [7] has as its system HBV gene. As to conditions: prior application CN102140461B; cited from earlier work.
For series [8] the following is noted: prior application CN102140461B; cited from earlier work.
The conditions of series [9]: prior application CN102140461B; cited from earlier work. This is another data set of the same source.

d = 2'-deoxy (DNA); m = 2'-O-methyl; r = 2'-OH (RNA); f = 2'-fluoro

In the case of `C=C1[C@H](CO)[C@@H](O)C[C@@H]1n1cnc2c(=O)[nH]c(N)nc21` [ETV, entecavir], in [1], the “inhibitory effect on the expression of HBsAg in the liver (in words)” value is listed as “no inhibitory effect”.

On to interferon [IFN], for which the “inhibitory effect on the expression of HBsAg in serum (in words)” value in series [2] was “no inhibitory effect”.

Take “X2M2: siRNA against HBV X gene; sense CmCmUmUmGAGGCmAUmACmUmUmCmAAA-dTdT, antisense UfUmUfGAAGUfAUGCCUfCAAGG-dTdT; covers S++, S−−, S+−, S−+ (sense CCUUGAGGCAUACUUCAAATT; antisense UUUGAAGUAUGCCUCAAGGTT; sense: DNA at T, 2'-O-methyl at CU, RNA at AG, backbone not given here; antisense: sugars from the 5' end fmfrrrrfrrrrrfrrrrrdd, backbone not given here; phosphorothioate variants at dT overhangs exist)”: the “cytotoxicity by MTT assay” value in series [3] is recorded as “no cytotoxicity was observed”. In series [4], the “RL (ratio of the longest fragments) 48 h” value is given as no less than 90%, the “band position / full-length state on gel (FIG. 3)” value is listed as “maintain a full-length state all the time” and the “plasma stability (in words)” value was “more excellent plasma stability than siRNA A4”. The “inhibitory activity on HBV mRNA expression in HepG2.2.15 cells (FIG. 2, in words)” value in series [5] is listed as “excellent activity at cell level”. Moreover, in [6], the “cytotoxicity by MTT assay” value was “no cytotoxicity was observed”.

In the case of “A4: siRNA of CN102140461B; sense CmCmUmUmGAGGCmAUmACmUmUmCmAAAdTdT, antisense UfUmUfGAAGUfAUfGCCUfCAAGGdTdT (sense CCUUGAGGCAUACUUCAAATT; antisense UUUGAAGUAUGCCUCAAGGTT; sense: DNA at T, 2'-O-methyl at CU, RNA at AG, backbone not given here; antisense: sugars from the 5' end fmfrrrrfrfrrrfrrrrrdd, backbone not given here) [reference compound]”, in series [4], the “RL (ratio of the longest fragments) 0 h” value is 100.0%, the “RL (ratio of the longest fragments) 2 h” value is given as 97.5%, the “RL (ratio of the longest fragments) 4 h” value is 93.7% and the “RL (ratio of the longest fragments) 6 h” value is listed as 106.0%. Further, in series [4], the “RL (ratio of the longest fragments) 8 h” value is 91.7%, the “RL (ratio of the longest fragments) 24 h” value is given as 90.0%, the “RL (ratio of the longest fragments) 48 h” value was 81.2% and the “band position / full-length state on gel (FIG. 3)” value is “band thereof significantly shifts downward gradually”. The “activity at cell level compared to unmodified siRNA CA1” value in [7] is on record as “substantially equal inhibitory activity as that of siRNA CA1”. Moreover, in series [8], the stability in blood entry is recorded as “increased stability in blood”.

Take “CA2: alternating modifications; sense CmCUmUGmAGmGCmAUmACmUUmCAmAAmdTdT, antisense UmUUmGAmAGmUAmUGmCCmUCmAAmGGmdTdT (sense CCUUGAGGCAUACUUCAAATT; antisense UUUGAAGUAUGCCUCAAGGTT; sugars from the 5' end mrmrmrmrmrmrmrmrmrmdd, backbone not given here) [reference compound]”: in series [4], the “RL (ratio of the longest fragments) 0 h” value came to 100.0%, the “RL (ratio of the longest fragments) 2 h” value is reported as 86.9%, the “RL (ratio of the longest fragments) 4 h” value is reported as 76.5% and the “RL (ratio of the longest fragments) 6 h” value stood at 68.8%. In [4], the “RL (ratio of the longest fragments) 8 h” value is 67.7%, the “RL (ratio of the longest fragments) 24 h” value came out at 48.7%, the “RL (ratio of the longest fragments) 48 h” value came out at 52.0% and the “plasma stability (in words)” value is “improved but is still not satisfactory”. The “cytotoxicity compared to unmodified siRNA CA1” value in series [9] was “higher cytotoxicity”. In addition, the “activity at cell level compared to unmodified siRNA CA1” value in series [7] is reported as “poorer activity at cell level”. For the same molecule, in [8], the stability in blood entry was “fails to reach a stable state in the blood”.
